Structures can show the parent of a compound that is named as a salt. Where two headings read alike, the source gives them in different places.
Columns and labels:
L1210 leukemia cells = assay: In vitro antitumor activity to L1210 leukemia cells (MTT); assay type: cell-based
Protocol: The cells were cultured in an incubator at 37° C., 5% CO2 and saturated humidity for 48 h. Then 5 mg/mL MTT (20 μL/well) was added and cultured at the same conditions for 4 h, DMSO (150 μL/well) was added, and the (570/630 nm) absorbance (A values) was measured by using micro-plate reader.

L1210 cells = assay type: cell-based
Protocol: The cells were cultured in an incubator at 37° C., 5% CO2 and saturated humidity. The culture medium was removed, the cells were washed with PBS twice, fixed at −20° C. overnight. Then the cells were centrifuged again, washed with PBS to remove ethanol, cultured with RNase A (200 μg/mL, Sigma) at 37° C. for 1 h, stained with PI (50 μg/mL, Sigma) in dark for 30 min, and detected by using a flow cytometer.

Bacillus subtilis = assay: Inhibition zone test (holing method); assay type: cell-based; settings: 37° C., 24 h; compounds 0.05 mg/well, streptomycin 0.15 mg/well
Protocol: (§1) After being cultured at 37° C. for 24 h, the sizes of inhibition zones were measured.

Candida albicans = assay: Inhibition zone test (holing method); assay type: cell-based; settings: 37° C., 24 h; compounds 0.05 mg/well, nysfungin 0.10 mg/well
Protocol: as §1

E. coli = assay: Inhibition zone test (holing method); assay type: cell-based; settings: 37° C., 24 h; compounds 0.05 mg/well, gentamicin 0.10 mg/well
Protocol: as §1

Pseudomonas aeruginosa [1] = assay: Inhibition zone test (holing method); assay type: cell-based; settings: 37° C., 24 h; compounds 0.05 mg/well, gentamicin 0.10 mg/well
Protocol: as §1

[2] = system: Staphylococcus aureus MRSA 5676; assay: Inhibition zone test (holing method); assay type: cell-based; settings: 37° C., 24 h; compounds 0.05 mg/well, vancomycin 0.15 mg/well
Protocol: as §1

[3] = system: Staphylococcus aureus MRSA 5677; assay: Inhibition zone test (holing method); assay type: cell-based; settings: 37° C., 24 h; compounds 0.05 mg/well, vancomycin 0.15 mg/well
Protocol: as §1

[4] = system: Staphylococcus aureus wild type; assay: Inhibition zone test (holing method); assay type: cell-based; settings: 37° C., 24 h; compounds 0.05 mg/well, streptomycin 0.15 mg/well
Protocol: as §1

[5] = system: Staphylococcus aureus wild type; assay: Test of minimal inhibitory concentration (MIC); assay type: cell-based; settings: two-fold dilution, 37° C., 24 h, absorbance 595 nm
MRSA5676 = assay: Test of minimal inhibitory concentration (MIC); assay type: cell-based, Staphylococcus aureus; settings: two-fold dilution, 37° C., 24 h, absorbance 595 nm
MRSA5677 = assay: Test of minimal inhibitory concentration (MIC); assay type: cell-based, Staphylococcus aureus; settings: two-fold dilution, 37° C., 24 h, absorbance 595 nm
[6] = system: secretion of pyocyanin by Pseudomonas aeruginosa; assay: Measurement of pyocyanin; assay type: cell-based; settings: 18 h culture, A520; Andro, AL-1 1 mM; Chuanhuning, Yanhuning, Lianbizhi 10 mM (FIG. 3)
Protocol: Pseudomonas aeruginosa was inoculated in LB medium, then cultured at a constant temperature of 37° C. in a shaker overnight. […] The supernatant was taken and extracted in turn with chloroform and 0.2 N HCl, and A520 values were measured (Zielinshi et al., Biol. Chem. 1991, 266, 9754-9763; May et al., Clin. Microbiology Rev. 1991, 4, 191-206).

[7] = system: extracellular protease of Pseudomonas aeruginosa; assay: Measurement of extracellular protease; assay type: cell-based; settings: azo-casein, A440; Andro, AL-1 1 mM; Chuanhuning, Yanhuning, Lianbizhi 10 mM (FIG. 4)
Protocol: Pseudomonas aeruginosa was inoculated in LB liquid, and cultured at a constant temperature of 37° C. in a shaker overnight. […] After the bacterial liquids were cultured simultaneously at 37° C. for 6 h and centrifuged, supernatant 100 μL was taken, azo-casein 5 mg was added, […] and CaCl2 10 mM were added, and then they were shaken for reaction at 37° C. for 6 h, and the reaction was terminated by adding EDTA-Na. The A440 values of the supernatants were measured (Zielinshi et al., Biol. Chem. 1991, 266, 9754-9763; May et al., Clin. Microbiology Rev. 1991, 4, 191-206).

[8] = system: suspended Pseudomonas aeruginosa; assay: Experiment of combination with antibiotics; assay type: cell-based; settings: Pseudomonas aeruginosa cultured 15 h, OD600; ciprofloxacin 0.017 μg/mL, erythromycin 3.75 μg/mL, Andro 350 μg/mL, AL-1 538 μg/mL (1 μmol/mL)
[9] = system: rats with STZ-induced diabetes mellitus; assay: Therapeutical effects on STZ-induced diabetes mellitus in rats; settings: Day 0, before treatment
Protocol: 30 Female SD rats, 180-220 g, fasted for 16 h, were subjected to intraperitoneal injection of 60 mg/kg of STZ (purchased from Sigma Company). After 72 h, blood samples were collected from the rats by cutting their tails after fasting 16 h, and blood glucose values were measured by using a blood glucose analyzer (Johnson & Johnson Company). […] Animals were weighed, orbital bleeded, and the sera were separated. According to the instructions of kit (Zhejiang Dongou Biotechnology Co., Ltd.), the contents of triglyceride and total cholesterol were measured. […] The rats of vehicle group were treated with an equivalent volume of solvent (20% DMSO in H2O). After being fasted for 16 h, the rats were weighed, and bleeded for the measurement of blood glucose, triglyceride and total cholesterol. The obtained data were processed by using one-factor analysis of variance (One-way ANOVA) followed by Student's t-test.

Pseudomonas aeruginosa [10] = assay: Measurement of growth curve of Pseudomonas aeruginosa; assay type: cell-based; settings: 10 mM according to FIG. 2 legend
Protocol: Pseudomonas aeruginosa was inoculated in LB medium, and cultured at a constant temperature of 37° C. in a shaker overnight.

glutathione = settings: after injection to animals; especially lung, liver and kidney cells; cited from earlier work
NF-kappaB = settings: 0.5 mmol/L, HAEC pretreated 48 h, TNF-α 10 U/ml; cited from earlier work
[11] = L1210 cells, 48 h, MTT, read-out: IC50

Compound | Inhibition zone diameter, Bacillus Subtilis (Bacillus subtilis) | Inhibition zone diameter, Candida albicans (Candida albicans) | Inhibition zone diameter, E. coli (E. coli) | Inhibition zone diameter, Pseudomonas aeruginosa (Pseudomonas aeruginosa [1]) | Inhibition zone diameter, Staphylococcus aureus MRSA 5676 [2] | Inhibition zone diameter, Staphylococcus aureus MRSA 5677 [3] | Inhibition zone diameter, Staphylococcus aureus Wild type [4] | further results
C=C1CCC2[C@](C)(CO)[C@H](O)CC[C@@]2(C)[C@@H]1C/C=C1/C(=O)OCC1OC(=O)/C=C/c1ccc([N+](=O)[O-])cc1 (some centres unmarked) [ANO, 14-[4′-nitrocinnamyl]-3,19-dihydroxy-andrographolide] | ^b (incompetence (inhibition zone diameter <4 mm)) | ^b (incompetence (inhibition zone diameter <4 mm)) | ^b (incompetence (inhibition zone diameter <4 mm)) | ^b (incompetence (inhibition zone diameter <4 mm)) | 8.1 ± 0.64 mm | 6.4 ± 0.42 mm | 8.3 ± 0.99 mm | IC50 (L1210 leukemia cells; Mus musculus, L1210 cells, 48 h, MTT, read-out: IC50): 9.96 ± 2.25 µM; effect on cell cycle / apoptosis of L1210 cells (L1210 cells; 10 μM, after 12 h): arrest L1210 cells at G1 prophase; MIC, Wild type [5]: 62.5; MIC, MRSA5676 (MRSA5676): 62.5; MIC, MRSA5677 (MRSA5677): 25; inhibition of the secretion of pyocyanin [6]: AL-1>Andro>ANO; inhibition of the production/activity of extracellular protease [7]: AL-1>ANO>Andro
COc1cccc2c1C(=O)c1c(O)c3c(c(O)c1C2=O)C[C@@](O)(C(=O)CO)C[C@@H]3O[C@H]1C[C@H](N)[C@H](O)[C@H](C)O1 [Dox, doxorubicin hydrochloride] |  |  |  |  |  |  |  | effect on cell cycle of L1210 cells (L1210 cells; concentration not given): arrested L1210 cells at G2 phase
CC[C@H]1OC(=O)[C@H](C)[C@@H](O[C@H]2C[C@@](C)(OC)[C@@H](O)[C@H](C)O2)[C@H](C)[C@@H](O[C@@H]2O[C@H](C)C[C@H](N(C)C)[C@H]2O)[C@](C)(O)C[C@@H](C)C(=O)[C@H](C)[C@@H](O)[C@]1(C)O [Erythromycin] |  |  |  |  |  |  |  | Survival Rate [8]: 93.9%
COc1ccc(Cl)cc1C(=O)NCCc1ccc(S(=O)(=O)NC(=O)NC2CCCCC2)cc1 [Glibenclamide] |  |  |  |  |  |  |  | Blood glucose [9]: 26.9 ± 1.56 mmol/L; Body weight [9]: 201 ± 3.61 g; Total cholesterol [9]: 2.57 ± 1.09 mmol/L; Total triglyceride [9]: 7.84 ± 2.21 mmol/L
C=C1CCC2[C@@](C)(CC[C@@H](O)[C@@]2(C)CO)C1CC(C1=CCOC1=O)S(=O)(=O)[O-].[Na+] (some centres unmarked) [Lianbizhi, andrographolide sodium bisulfite] | ^b (incompetence (inhibition zone diameter <4 mm)) | ^b (incompetence (inhibition zone diameter <4 mm)) | ^b (incompetence (inhibition zone diameter <4 mm)) | ^b (incompetence (inhibition zone diameter <4 mm)) | ^b (incompetence (inhibition zone diameter <4 mm)) | ^b (incompetence (inhibition zone diameter <4 mm)) | ^b (incompetence (inhibition zone diameter <4 mm)) | IC50 (L1210 leukemia cells; Mus musculus, L1210, 48 h): > 100 µM; inhibition of the growth of Pseudomonas aeruginosa (growth curve, A600) (Pseudomonas aeruginosa [10]): no direct inhibition effect
[H]/N=C(/N)N[C@H]1[C@H](O)[C@@H](O)[C@H](O[C@@H]2O[C@@H](C)[C@](O)(C=O)[C@H]2O[C@@H]2O[C@@H](CO)[C@H](O)[C@@H](O)[C@@H]2NC)[C@@H](N/C(N)=N\[H])[C@@H]1O [Streptomycin] | 22.1 ± 1.00 mm |  |  |  |  |  | 21.2 ± 1.00 mm | 
CN[C@H](CC(C)C)C(=O)N[C@H]1C(=O)N[C@@H](CC(N)=O)C(=O)N[C@H]2C(=O)N[C@H]3C(=O)N[C@H](C(=O)N[C@H](C(=O)O)c4cc(O)cc(O)c4-c4cc3ccc4O)[C@H](O)c3ccc(c(Cl)c3)Oc3cc2cc(c3O[C@@H]2O[C@H](CO)[C@@H](O)[C@H](O)[C@H]2O[C@H]2C[C@](C)(N)[C@H](O)[C@H](C)O2)Oc2ccc(cc2Cl)[C@H]1O [Vancomycin] |  |  |  |  | 20.0 ± 1.00 mm | 21.0 ± 1.00 mm |  | MIC, Wild type [5]: 1.56; MIC, MRSA5676 (MRSA5676): 1.56; MIC, MRSA5677 (MRSA5677): 3.13
O=C(O)CCCCC1CCSS1 (stereo not drawn) [lipoic acid, Alpha-lipoic acid] |  |  |  |  |  |  |  | increase of glutathione level (glutathione): 30%-70%; inhibition of NF-kappaB activity induced by TNF-α (NF-kappaB): 81%
Gentamicin |  |  | 20.1 ± 1.00 mm | 21.0 ± 1.00 mm |  |  |  | 
Nysfungin |  | 10.00 ± 1.00 mm |  |  |  |  |  | 
potassium dehydroandrograpolide succinate [Chuanhuning] | ^b (incompetence (inhibition zone diameter <4 mm)) | ^b (incompetence (inhibition zone diameter <4 mm)) | ^b (incompetence (inhibition zone diameter <4 mm)) | ^b (incompetence (inhibition zone diameter <4 mm)) | ^b (incompetence (inhibition zone diameter <4 mm)) | ^b (incompetence (inhibition zone diameter <4 mm)) | ^b (incompetence (inhibition zone diameter <4 mm)) | IC50 (L1210 leukemia cells; [11]): > 100 µM; inhibition of the growth of Pseudomonas aeruginosa (growth curve, A600) (Pseudomonas aeruginosa [10]): no direct inhibition effect
potassium sodium dehydroandrographolide succinate [Yanhuning] | ^b (incompetence (inhibition zone diameter <4 mm)) | ^b (incompetence (inhibition zone diameter <4 mm)) | ^b (incompetence (inhibition zone diameter <4 mm)) | ^b (incompetence (inhibition zone diameter <4 mm)) | ^b (incompetence (inhibition zone diameter <4 mm)) | ^b (incompetence (inhibition zone diameter <4 mm)) | ^b (incompetence (inhibition zone diameter <4 mm)) | IC50 (L1210 leukemia cells; [11]): > 100 µM; inhibition of the growth of Pseudomonas aeruginosa (growth curve, A600) (Pseudomonas aeruginosa [10]): no direct inhibition effect
